Reference: patent publication US12516060B2, “Solid freebase forms of 5-chloro-2-(4-((2-hydroxy-2-methylpropyl)amino)pyrido[3,4-d]pyridazin-1-yl)phenol for inhibiting NLRP3 and uses thereof” (Ventus Therapeutics U.S., Inc., priority 2023, dated 2026)
Entries after “also recorded” stand apart in the source; their conditions may differ.

What was measured:
Type in all cases: physicochemical
[1] = Second set of competitive slurry experiments (Form V vs Form I and Form II)
Protocol: A second set of competitive slurry experiments was set up in three solvent systems and two temperatures to assess the relative stability of Form V freebase with respect to Form I freebase and Form II freebase. […] In all samples, the input seed patterns were observed less than 1 min after addition. […] After 7 days, the quantity of Form II freebase remaining in the RT acetonitrile sample was greatly diminished, though Form II freebase was still present in trace quantities.

[2] = Solid form stability studies, 75% RH at 40° C. for one week (XRPD and HPLC)
Protocol: Solid form stability studies were performed on Form I-V freebase forms by weighing approximately 10-15 mg of the crystalline material into 4 mL vials and covering with a lab grade task wipe (Kimwipe). These vials were placed inside a stability chamber set at 75%±5% relative humidity (RH) at 40° C.±2° C., where they were left for one week (7 full days). The retrieved material was then analyzed by XRPD and HPLC. In each case, the initial material and tested material were identical by XRPD, with the exception of Form I freebase, where an extra peak at 5.8 °2θ in the initial material was absent after the stability test. HPLC purities of the tested material were essentially unchanged from those of the initial material.

[3] = Dynamic Vapor Sorption (DVS)
Protocol: DVS was performed using TA Instruments Q5000SA. The sample (5-15 mg) was loaded into a metallic quartz sample pan, suspended from a microbalance, and exposed to a humidified stream of nitrogen gas. Weight changes were relative to a matching empty reference pan opposite the sample, suspended from the microbalance. The sample was held for a minimum of 10 min at each level and only progressed to the next humidity level if there was <0.002% change in weight between measurements (interval: 5 s) or 45 min had elapsed (for 5-65% RH) or 2 h had elapsed (for 80 and 95% RH). Mass change by DVS is related to hygroscopicity.

Question: For CC(C)(O)CNc1nnc(-c2ccc(Cl)cc2O)c2ccncc12 [Form V freebase, 5-chloro-2-(4-((2-hydroxy-2-methylpropyl)amino)pyrido[3,4-d]pyridazin-1-yl)phenol], which “form observed by XRPD after 3 days” value ([1]; acetonitrile, MeOH, acetone:water (7:3 vol.), RT and 50° C., 3 days) is on record?
Answer: Its value is “the sole form observed in all experiments, except in acetonitrile at RT”.

Question: And the “relative (thermodynamic) stability vs Form I and Form II” value ([1]; second set of slurries, various solvent systems)?
Answer: The value was “favored over both Form I and II freebase; also recorded: most thermodynamically stable form studied”.

Question: And the “XRPD (tested material)” value ([2]; 75% ± 5% RH at 40° C. ± 2° C. for 1 week)?
Answer: Its value is “Form V”.

Question: What about the “Purity % a/a (tested material)” value ([2]; HPLC, after 75% ± 5% RH at 40° C. ± 2° C. for 1 week) of the same molecule?
Answer: Its value is 99.60 % a/a.

Question: And the “Purity % a/a (input material)” value ([2]; HPLC, before stability test)?
Answer: The value was 99.46 % a/a.

Question: And the “solid-form and chemical stability at elevated RH” value ([2]; one-week at 75% RH and 40° C.)?
Answer: The value was “no form change or purity decrease”.

Question: What about the “DVS mass change 5-95% RH (wt. %)” value ([3]; 5-95% RH) of the same molecule?
Answer: Its value is 0.20 wt. %.

Question: And the “water uptake, weight gain between 5-95% relative humidity (RH)” value ([3]; DVS, 5-95% RH)?
Answer: The value was “about 0.20%”.

Question: And the hygroscopicity ([3]; DVS, all adsorbed water lost during the drying cycle)?
Answer: Its hygroscopicity is “slightly, hygroscopic”.

Question: And the “relative hygroscopicity among the Forms studied by DVS” value ([3]; Forms I-V)?
Answer: Its value is “least hygroscopic”.

Question: And the “XRPD pre- and post-DVS” value ([3]; form stability after DVS cycle)?
Answer: The value was “remained unchanged”.
